Measurements reported in article PMC9878661, “Syntheses, Structural Characterization, and Cytotoxicity Assessment of Novel Mn(II) and Zn(II) Complexes of Aroyl-Hydrazone Schiff Base Ligand” (ACS Omega, 2023).

Target: T1, bovine serum albumin (BSA) (Bos taurus, UniProt P02769)
T1 construct: gene ALB
Assay: UV-vis absorption titration of BSA at […] nm (double reciprocal plot)
Assay type: binding
Settings: read-out: UV-vis absorption titration of BSA at 280 nm (double reciprocal plot) (converted)

T1 sequence (P02769 25-607): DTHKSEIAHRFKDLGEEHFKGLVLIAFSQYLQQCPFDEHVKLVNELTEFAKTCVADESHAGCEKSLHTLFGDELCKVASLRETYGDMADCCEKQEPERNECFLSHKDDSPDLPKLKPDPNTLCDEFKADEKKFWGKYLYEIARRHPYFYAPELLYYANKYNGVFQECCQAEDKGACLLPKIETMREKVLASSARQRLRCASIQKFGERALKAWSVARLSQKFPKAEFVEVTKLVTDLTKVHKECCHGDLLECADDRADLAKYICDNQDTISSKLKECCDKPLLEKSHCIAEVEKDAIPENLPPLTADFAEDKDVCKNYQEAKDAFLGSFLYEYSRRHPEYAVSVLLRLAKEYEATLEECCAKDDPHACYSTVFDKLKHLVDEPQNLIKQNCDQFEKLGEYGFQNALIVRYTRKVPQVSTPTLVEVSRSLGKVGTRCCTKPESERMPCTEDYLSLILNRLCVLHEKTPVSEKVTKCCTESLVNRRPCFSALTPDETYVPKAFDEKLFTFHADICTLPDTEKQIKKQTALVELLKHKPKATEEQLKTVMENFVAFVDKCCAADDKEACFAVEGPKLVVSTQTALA

Kd: 261 µM
SMILES: O=C(NN=Cc1c[nH]c2ccccc12)c1ccncc1 [L1, N′-[(E)-3-Indol-3-ylmethylene] isonicotinohydrazide]
